{"source": "paper PMC4718634", "about": "“Murine GPRC6A Mediates Cellular Responses to L-Amino Acids, but Not Osteocalcin Variants” (PLoS ONE, 2016)", "key": {"mGPRC6A (mouse GPRC6A)": {"target": "T1, mGPRC6A (mouse GPRC6A) (Mus musculus, UniProt Q8K4Z6)", "T1 sequence (Q8K4Z6 21-928)": "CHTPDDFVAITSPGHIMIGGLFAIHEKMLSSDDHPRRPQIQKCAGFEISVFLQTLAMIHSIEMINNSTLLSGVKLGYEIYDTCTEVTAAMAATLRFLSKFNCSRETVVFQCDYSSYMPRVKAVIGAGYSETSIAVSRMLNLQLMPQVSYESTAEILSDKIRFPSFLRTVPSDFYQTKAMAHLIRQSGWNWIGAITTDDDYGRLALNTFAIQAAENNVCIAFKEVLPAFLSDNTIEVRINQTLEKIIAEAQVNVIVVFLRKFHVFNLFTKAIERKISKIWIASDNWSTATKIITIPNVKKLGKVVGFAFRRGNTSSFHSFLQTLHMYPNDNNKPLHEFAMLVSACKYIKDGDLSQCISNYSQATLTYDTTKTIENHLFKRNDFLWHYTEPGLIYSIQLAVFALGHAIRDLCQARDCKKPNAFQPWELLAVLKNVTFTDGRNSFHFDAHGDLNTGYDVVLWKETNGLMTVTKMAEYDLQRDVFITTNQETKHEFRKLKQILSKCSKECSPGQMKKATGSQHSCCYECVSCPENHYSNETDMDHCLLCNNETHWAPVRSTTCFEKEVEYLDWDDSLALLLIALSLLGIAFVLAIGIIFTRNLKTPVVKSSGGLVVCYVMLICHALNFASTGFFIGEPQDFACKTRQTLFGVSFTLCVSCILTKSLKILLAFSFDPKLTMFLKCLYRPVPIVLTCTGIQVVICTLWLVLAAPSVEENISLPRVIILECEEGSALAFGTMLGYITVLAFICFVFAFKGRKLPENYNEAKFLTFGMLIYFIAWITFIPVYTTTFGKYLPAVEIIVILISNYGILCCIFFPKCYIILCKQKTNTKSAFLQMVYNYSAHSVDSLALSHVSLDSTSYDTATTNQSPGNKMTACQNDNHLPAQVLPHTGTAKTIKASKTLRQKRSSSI", "test": "Ca^2+i mobilisation, FlpIn-TREx-HEK293-mGPRC6A cells", "type": "cell-based", "procedure,_shortened": "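Tetracycline-induced FlpIn-TREx-HEK293 cells expressing mouse GPRC6A, transiently transfected with Gαq or GαqG66D and serum-starved overnight, were loaded with 1 μM Fluo-4-AM 1 h at 37 °C in pH 7.4 buffer with probenecid.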"}, "mouse GPRC6A": {"tested_on": "mouse GPRC6A", "details": "ref [13]; cited from earlier work", "source_text": "Additional interest in GPRC6A has emerged due to several studies reporting that it mediates the metabolic and endocrine effects of the de-carboxylated form of the osteoblast-derived peptide, osteocalcin (OCN). […] Given these discrepancies, we sought to evaluate the pharmacology of human and mouse GPRC6A in a range of cell signalling assays ..."}}, "note": "“Also recorded” adds a separate entry of the source."}
{"compound": "NCCC[C@H](N)C(=O)O", "note": "[L-ornithine]", "values": [{"measurement": "potency at murine GPRC6A (calcium and inositol phosphate, words)", "setting": "mGPRC6A (mouse GPRC6A); calcium mobilisation and inositol phosphate accumulation, Discussion", "value": "most potent agonists"}, {"measurement": "rank order of potency, Ca^2+ mobilisation", "setting": "mGPRC6A (mouse GPRC6A); co-expressing GαqG66D, Fig 1D", "value": "L-ornithine > L-arginine = L-lysine"}, {"measurement": "EC50", "setting": "mGPRC6A (mouse GPRC6A); co-expressing GαqG66D, Fluo-4, normalised to 100 μM ATP, pEC50 ± SEM, printed in picture Fig 1D, read-out: pEC50, Ca^2+ mobilisation (converted)", "value": 3.16, "unit": "µM"}]}
{"compound": "OCN: osteoblast-derived peptide, osteocalcin; variant not specified at the place (YLYQWLGAPVPYPDPLEPRREVCELNPDCDELADHIGFQEAYRRFYGPV; UniProt P02818 52-100, looked up)", "values": [{"measurement": "agonist activity of OCN at mouse GPRC6A", "setting": "mouse GPRC6A", "value": "no agonist effect of OCN was evident in any of the assays profiled; also recorded: failed to replicate either the agonist activity of OCN"}]}
